According to publication PMC7316994, “In Vitro Pharmacological Profile of a New Small Molecule Bradykinin B2 Receptor Antagonist” (Frontiers in Pharmacology, 2020):

Columns and labels:
Serotonin 5-HT2B = target: T1, Serotonin 5-HT2B (Homo sapiens, UniProt P41595); assay: radioligand binding (Table S2); conditions: [125I] (±)DOI, Human recombinant CHO cells
T1 construct: host or cells: CHO cells

[1] = test system: Gamma-aminobutyric acid GABAA, muscimol, central; assay: radioligand binding (Table S2); conditions: [3H] Muscimol, Wistar rat brain (minus cerebellum)
Neurokinin NK3 = target: T2, Neurokinin NK3 (Homo sapiens, UniProt P29371); assay: functional assay, intracellular [Ca2+], CHO cells (Table S2); type: cell-based
T2 construct: host or cells: CHO cells
T2 sequence (P29371 1-465): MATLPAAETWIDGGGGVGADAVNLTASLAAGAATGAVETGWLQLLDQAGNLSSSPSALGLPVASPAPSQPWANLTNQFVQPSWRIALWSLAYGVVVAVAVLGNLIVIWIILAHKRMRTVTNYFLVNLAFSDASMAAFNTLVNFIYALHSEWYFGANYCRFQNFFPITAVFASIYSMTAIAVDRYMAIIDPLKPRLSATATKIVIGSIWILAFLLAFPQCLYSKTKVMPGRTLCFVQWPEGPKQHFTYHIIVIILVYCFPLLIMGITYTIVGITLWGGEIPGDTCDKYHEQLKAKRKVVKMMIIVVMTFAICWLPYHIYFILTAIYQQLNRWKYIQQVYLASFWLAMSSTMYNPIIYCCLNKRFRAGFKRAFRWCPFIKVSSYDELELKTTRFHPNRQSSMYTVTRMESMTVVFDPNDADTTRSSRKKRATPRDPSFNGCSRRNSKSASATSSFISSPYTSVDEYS

Muscarinic M3 = Muscarinic M3 (Homo sapiens, UniProt P20309); assay: radioligand binding (Table S2); conditions: read-out: % Inhibition @ 10 µM
Melanocortin MC4 = target: T3, Melanocortin MC4 (Homo sapiens, UniProt P32245); assay: radioligand binding (Table S2); conditions: [125I] NDP-α-MSH, Human recombinant CHO cells
T3 construct: host or cells: CHO cells

5-HT2A receptor = target: T4, 5-HT2A receptor (Homo sapiens, UniProt P28223); assay: umbilical vein, serotonin-induced contraction; conditions: Compound 2 10 μM; Compound 3 1 μM
T4 construct: other endogenously expressed receptors in the human umbilical vein; from tissue; host or cells: human umbilical vein rings
From the text: The local ethics committee (CHU de Québec-Université Laval) had approved the project (File no. 2017-3720). Umbilical cords were obtained following elective caesarean sections; all problematic deliveries are excluded. Informed consent was obtained from the mothers. The cords were transported from the maternity ward to the laboratory in sterile Hank's balanced salt solution containing penicillin and streptomycin. Segments of umbilical veins were dissected carefully from the cords and a metal rod was inserted in the lumen. Excess connective tissue was excised and rings (2–3 mm wide) were cut. Rings of umbilical veins were suspended in 5-mL organ chambers containing oxygenated (95% O2, 5% CO2) and warmed (37°C) Krebs' solution between a metal hook and a thread loop. This solution had the following composition: NaCl 117.5 mM, KCl 4.7 mM, KH2PO4 1.2 mM, MgSO4 1.18 mM, CaCI2 2.5 mM, NaHCO3 25.0 mM, and D-glucose 5.5 mM. A baseline of one gram-weight was applied to these preparations. Changes of tension were recorded by using isometric transducers (model 52-9545, Harvard Bioscience, South Natick MA). Eight tissue baths are operated in parallel.
For this purpose, contractile responses to serotonin, acting on the 5-HT2A receptor, and U-46619, acting at the prostanoid TP receptor, were measured ([Rogines-Velo et al., 2002]; [Daray et al., 2003]).

Adrenergic β3 = Adrenergic β3 (Homo sapiens, UniProt P13945); assay: radioligand binding (Table S2); conditions: read-out: % Inhibition @ 10 µM
Sequence of Adrenergic β3 (P13945 whole entry): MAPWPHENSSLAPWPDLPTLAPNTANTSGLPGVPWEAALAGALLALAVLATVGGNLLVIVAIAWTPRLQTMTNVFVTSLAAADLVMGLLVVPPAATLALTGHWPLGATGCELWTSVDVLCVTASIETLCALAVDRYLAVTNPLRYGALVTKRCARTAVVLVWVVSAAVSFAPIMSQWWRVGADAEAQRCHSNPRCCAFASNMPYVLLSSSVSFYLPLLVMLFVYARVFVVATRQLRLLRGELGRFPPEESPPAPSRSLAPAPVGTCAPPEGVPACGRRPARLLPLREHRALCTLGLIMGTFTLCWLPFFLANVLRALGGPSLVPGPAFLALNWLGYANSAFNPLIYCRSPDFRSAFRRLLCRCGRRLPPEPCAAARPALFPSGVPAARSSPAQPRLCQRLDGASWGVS

T3 sequence (P32245 whole entry): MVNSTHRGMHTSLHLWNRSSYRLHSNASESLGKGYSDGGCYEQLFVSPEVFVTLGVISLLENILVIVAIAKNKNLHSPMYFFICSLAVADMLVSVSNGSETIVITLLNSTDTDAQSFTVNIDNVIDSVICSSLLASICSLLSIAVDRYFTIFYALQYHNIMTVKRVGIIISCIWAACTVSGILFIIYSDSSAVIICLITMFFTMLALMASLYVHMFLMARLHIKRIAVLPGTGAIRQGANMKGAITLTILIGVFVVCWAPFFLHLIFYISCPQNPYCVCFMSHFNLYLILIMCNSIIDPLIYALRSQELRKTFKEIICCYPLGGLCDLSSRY
Sequence of Muscarinic M3 (P20309 whole entry): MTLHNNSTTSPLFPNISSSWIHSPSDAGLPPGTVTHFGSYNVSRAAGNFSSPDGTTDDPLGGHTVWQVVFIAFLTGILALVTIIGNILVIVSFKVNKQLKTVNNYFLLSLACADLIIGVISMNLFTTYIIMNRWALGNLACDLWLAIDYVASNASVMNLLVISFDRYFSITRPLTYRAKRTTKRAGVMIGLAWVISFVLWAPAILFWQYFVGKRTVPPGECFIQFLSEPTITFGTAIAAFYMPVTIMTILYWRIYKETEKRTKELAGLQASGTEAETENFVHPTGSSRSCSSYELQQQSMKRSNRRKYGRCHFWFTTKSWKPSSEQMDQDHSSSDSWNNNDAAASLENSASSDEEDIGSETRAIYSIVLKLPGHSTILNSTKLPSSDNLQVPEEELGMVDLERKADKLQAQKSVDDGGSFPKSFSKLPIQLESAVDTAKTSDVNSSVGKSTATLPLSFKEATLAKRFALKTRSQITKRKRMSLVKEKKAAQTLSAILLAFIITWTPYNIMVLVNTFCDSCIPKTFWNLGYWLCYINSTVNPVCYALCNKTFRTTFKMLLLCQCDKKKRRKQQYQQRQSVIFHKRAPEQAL
T1 sequence (P41595 whole entry): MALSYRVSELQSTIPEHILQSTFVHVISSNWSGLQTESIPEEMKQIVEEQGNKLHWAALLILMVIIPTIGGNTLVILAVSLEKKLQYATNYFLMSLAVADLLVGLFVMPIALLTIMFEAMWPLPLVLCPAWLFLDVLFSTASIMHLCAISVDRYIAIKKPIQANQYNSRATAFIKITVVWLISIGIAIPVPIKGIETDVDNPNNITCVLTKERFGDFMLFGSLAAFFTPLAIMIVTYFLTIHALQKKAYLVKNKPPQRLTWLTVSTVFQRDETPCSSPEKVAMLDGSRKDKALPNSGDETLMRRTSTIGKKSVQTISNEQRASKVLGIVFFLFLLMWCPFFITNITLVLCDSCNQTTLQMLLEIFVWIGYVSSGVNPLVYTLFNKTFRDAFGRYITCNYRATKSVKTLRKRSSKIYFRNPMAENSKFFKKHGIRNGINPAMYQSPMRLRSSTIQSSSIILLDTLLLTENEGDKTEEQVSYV
T4 sequence (P28223 whole entry): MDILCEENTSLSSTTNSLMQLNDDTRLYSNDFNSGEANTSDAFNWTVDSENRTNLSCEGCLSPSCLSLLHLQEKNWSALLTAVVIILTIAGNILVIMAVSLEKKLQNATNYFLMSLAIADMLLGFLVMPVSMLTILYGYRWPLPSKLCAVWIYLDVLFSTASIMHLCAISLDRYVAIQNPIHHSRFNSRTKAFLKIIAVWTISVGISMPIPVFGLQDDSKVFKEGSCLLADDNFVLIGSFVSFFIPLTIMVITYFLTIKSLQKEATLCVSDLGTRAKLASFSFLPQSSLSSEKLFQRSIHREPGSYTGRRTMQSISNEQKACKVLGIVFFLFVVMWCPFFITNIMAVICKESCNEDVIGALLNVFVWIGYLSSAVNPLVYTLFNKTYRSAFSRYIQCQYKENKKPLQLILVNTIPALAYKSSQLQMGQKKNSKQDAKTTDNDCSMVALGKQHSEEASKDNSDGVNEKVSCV

## Cc1cc(-c2ncnn2C)c2cccc(OCc3c(Cl)cc(F)cc3[C@H](C)NC(=O)COC(F)F)c2n1 [Compound 3, (S)-N-(1-(3-chloro-5-fluoro-2-((2-methyl-4-(1-methyl-1H-1,2,4-triazol-5-yl)quinolin-8-yloxy)methyl)phenyl)ethyl)-2-(difluoromethoxy)acetamide]
Serotonin 5-HT2B
  inhibition at 10 µM: -8.9%
[1]
  % Inhibition @ 10 µM: 12%
Neurokinin NK3; 10 µM, reference [MePhe7]-NKB (30 nM)
  % of reference agonist response @ 10 µM (agonist effect): 7.0%
Neurokinin NK3; CHO, read-out: % inhibition of reference agonist response @ 10 µM (antagonist effect), 10 µM, [MePhe7]-NKB (1 nM)
  inhibition at 10 µM: 40.8%
Neurokinin NK3; [MePhe7]-NKB (1 nM), read-out: IC50 (µM), functional antagonism
  IC50: 17 µM
Neurokinin NK3; [MePhe7]-NKB (1 nM), read-out: Kb (µM), functional antagonism
  Kb: 1.6 µM
Muscarinic M3
  inhibition at 10 µM: 4.2%
Melanocortin MC4
  inhibition at 10 µM: 7.1%
5-HT2A receptor
  effect on serotonin-induced contraction: Lack of antagonist effect
Adrenergic β3
  inhibition at 10 µM: 8.1%
